According to PubChem BioAssay AID270 (DTP/NCI, 2004):
Several values for one entry are separate records, joined by “and”; a condition that tells them apart may be missing. Equal values may be shown once. Inconclusive results are not listed.

Test system: BDF1 mice, s.c. Lewis lung carcinoma, T/C %
Assay: NCI In Vivo Anticancer Drug Screen. Data for tumor model Lewis Lung Carcinoma (subcutaneous) in B6D2F1 (BDF1) mice
Outline: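 Transplanted tumors grown in mice; compound vs vehicle dosing; endpoint survival or tumor size; ratio T/C.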

O=NN(CCCl)C(=O)NC1CCC(O)CC1 (centres undefined)
T/C (endpoint: median survival time, dose: 10.0 mg/kg/injection, schedule: Q01DX001 (ip), vehicle: Klucel (hydroxypropylcellulose) (HPC), higher = longer survival): 104 % of control | T/C (endpoint: median survival time, dose: 10.0 mg/kg/injection, schedule: Q01DX001 (ip), vehicle: other, higher = longer survival): 112 % of control and 119 % of control | T/C (endpoint: median survival time, dose: 20.0 mg/kg/injection, schedule: Q01DX001 (ip), vehicle: Klucel (hydroxypropylcellulose) (HPC), higher = longer survival): 105 % of control | T/C (endpoint: median survival time, dose: 20.0 mg/kg/injection, schedule: Q01DX001 (ip), vehicle: other, higher = longer survival): 105 % of control | T/C (endpoint: median survival time, dose: 40.0 mg/kg/injection, schedule: Q01DX001 (ip), vehicle: Klucel (hydroxypropylcellulose) (HPC), higher = longer survival): 186 % of control | T/C (endpoint: median survival time, dose: 40.0 mg/kg/injection, schedule: Q01DX001 (ip), vehicle: other, higher = longer survival): 202 % of control | T/C (endpoint: median survival time, dose: 80.0 mg/kg/injection, schedule: Q01DX001 (ip), vehicle: Klucel (hydroxypropylcellulose) (HPC), higher = longer survival): 108 % of control

Cc1cc2oc(=O)c3c(c2c(O)c1CN1CCCC1)CCCC3
T/C (endpoint: median survival time, dose: 29.0 mg/kg/injection, schedule: Q01DX009 (ip), vehicle: Klucel (hydroxypropylcellulose) (HPC), higher = longer survival): 94 % of control | T/C (endpoint: median survival time, dose: 58.0 mg/kg/injection, schedule: Q01DX009 (ip), vehicle: Klucel (hydroxypropylcellulose) (HPC), higher = longer survival): 106 % of control | T/C (endpoint: median survival time, dose: 116.0 mg/kg/injection, schedule: Q01DX009 (ip), vehicle: Klucel (hydroxypropylcellulose) (HPC), higher = longer survival): 106 % of control | T/C (endpoint: median survival time, dose: 232.0 mg/kg/injection, schedule: Q01DX009 (ip), vehicle: Klucel (hydroxypropylcellulose) (HPC), higher = longer survival): 94 % of control

COC12C(COC(=O)NCCO)C3=C(C(=O)C(C)=C(N)C3=O)N1CC1NC12 (centres undefined)
T/C (endpoint: median survival time, dose: 3.13 mg/kg/injection, schedule: Q01DX009 (ip), vehicle: Klucel (hydroxypropylcellulose) (HPC), higher = longer survival): 94 % of control | T/C (endpoint: median survival time, dose: 6.25 mg/kg/injection, schedule: Q01DX009 (ip), vehicle: Klucel (hydroxypropylcellulose) (HPC), higher = longer survival): 92 % of control | T/C (endpoint: median survival time, dose: 25.0 mg/kg/injection, schedule: Q01DX009 (ip), vehicle: Klucel (hydroxypropylcellulose) (HPC), higher = longer survival): 94 % of control

COc1cc2c(cc1NC(=O)N(CCCl)N=O)-c1ccccc1C2
T/C (endpoint: median survival time, dose: 118.0 mg/kg/injection, schedule: Q01DX001 (ip), vehicle: saline with Tween-80, higher = longer survival): 93 % of control | T/C (endpoint: median survival time, dose: 177.0 mg/kg/injection, schedule: Q01DX001 (ip), vehicle: saline with Tween-80, higher = longer survival): 114 % of control | T/C (endpoint: median survival time, dose: 266.0 mg/kg/injection, schedule: Q01DX001 (ip), vehicle: saline with Tween-80, higher = longer survival): 106 % of control | T/C (endpoint: median survival time, dose: 400.0 mg/kg/injection, schedule: Q01DX001 (ip), vehicle: saline with Tween-80, higher = longer survival): 101 % of control | T/C (endpoint: median survival time, dose: 600.0 mg/kg/injection, schedule: Q01DX001 (ip), vehicle: saline with Tween-80, higher = longer survival): 90 % of control

COc1ccc(-c2ccc(OC)c(OC)c2OC)c(N)c1
T/C (endpoint: mean tumor weight, dose: 375.0 mg/kg/injection, schedule: Q01DX011 (ip), vehicle: carboxymethylcellulose (CMC), higher = larger tumour): 58 % of control | T/C (endpoint: mean tumor weight, dose: 500.0 mg/kg/injection, schedule: Q01DX011 (ip), vehicle: carboxymethylcellulose (CMC), higher = larger tumour): 89 % of control | T/C (endpoint: mean tumor weight, dose: 625.0 mg/kg/injection, schedule: Q01DX011 (ip), vehicle: carboxymethylcellulose (CMC), higher = larger tumour): 74 % of control | T/C (endpoint: mean tumor weight, dose: 750.0 mg/kg/injection, schedule: Q01DX011 (ip), vehicle: carboxymethylcellulose (CMC), higher = larger tumour): 56 % of control | T/C (endpoint: median survival time, dose: 25.0 mg/kg/injection, schedule: Q01DX009 (ip), vehicle: saline with Tween-80, higher = longer survival): 101 % of control | T/C (endpoint: median survival time, dose: 50.0 mg/kg/injection, schedule: Q01DX009 (ip), vehicle: saline with Tween-80, higher = longer survival): 107 % of control | T/C (endpoint: median survival time, dose: 100.0 mg/kg/injection, schedule: Q01DX009 (ip), vehicle: saline with Tween-80, higher = longer survival): 108 % of control | T/C (endpoint: median survival time, dose: 200.0 mg/kg/injection, schedule: Q01DX009 (ip), vehicle: saline with Tween-80, higher = longer survival): 106 % of control

COC(=O)[C@@H]1[C@@H](O)[C@H](OC(=O)c2cc(OC)c(OC)c(OC)c2)C[C@@H]2CN3CCc4c([nH]c5ccccc45)[C@H]3C[C@@H]21
T/C (endpoint: median survival time, dose: 1.25 mg/kg/injection, schedule: Q01DX009 (ip), vehicle: Klucel (hydroxypropylcellulose) (HPC), higher = longer survival): 108 % of control | T/C (endpoint: median survival time, dose: 2.5 mg/kg/injection, schedule: Q01DX009 (ip), vehicle: Klucel (hydroxypropylcellulose) (HPC), higher = longer survival): 122 % of control | T/C (endpoint: median survival time, dose: 5.0 mg/kg/injection, schedule: Q01DX009 (ip), vehicle: Klucel (hydroxypropylcellulose) (HPC), higher = longer survival): 88 % of control

CC(/C=N/N=C(N)N)=N/N=C(N)N
T/C (endpoint: mean tumor weight, dose: 12.5 mg/kg/injection, schedule: Q01DX011 (ip), vehicle: saline, higher = larger tumour): 96 % of control | T/C (endpoint: mean tumor weight, dose: 25.0 mg/kg/injection, schedule: Q01DX011 (ip), vehicle: saline, higher = larger tumour): 69 % of control | T/C (endpoint: mean tumor weight, dose: 50.0 mg/kg/injection, schedule: Q01DX011 (ip), vehicle: saline, higher = larger tumour): 94 % of control

IP(c1ccccc1)(c1ccccc1)(c1ccccc1)N1C2CCCCC21 (centres undefined)
T/C (endpoint: median survival time, dose: 0.3 mg/kg/injection, schedule: Q01DX009 (ip), vehicle: Klucel (hydroxypropylcellulose) (HPC), higher = longer survival): 94 % of control | T/C (endpoint: median survival time, dose: 0.6 mg/kg/injection, schedule: Q01DX009 (ip), vehicle: Klucel (hydroxypropylcellulose) (HPC), higher = longer survival): 103 % of control | T/C (endpoint: median survival time, dose: 38.0 micrograms/kg/injection, schedule: Q01DX009 (ip), vehicle: Klucel (hydroxypropylcellulose) (HPC), higher = longer survival): 94 % of control | T/C (endpoint: median survival time, dose: 75.0 micrograms/kg/injection, schedule: Q01DX009 (ip), vehicle: Klucel (hydroxypropylcellulose) (HPC), higher = longer survival): 91 % of control | T/C (endpoint: median survival time, dose: 150.0 micrograms/kg/injection, schedule: Q01DX009 (ip), vehicle: Klucel (hydroxypropylcellulose) (HPC), higher = longer survival): 104 % of control | T/C (endpoint: median survival time, dose: 300.0 micrograms/kg/injection, schedule: Q01DX009 (ip), vehicle: Klucel (hydroxypropylcellulose) (HPC), higher = longer survival): 91 % of control
